Source: ChEMBL document CHEMBL5113380, “Functionalized quinoxalinones as privileged structures with broad-ranging pharmacological activities” (Eur J Med Chem, 2022)
Converted amounts (≈) assume the structure as drawn.

What was measured:
[1] = tested on: Human immunodeficiency virus 1; experiment: Antiviral activity against HIV1; format: functional, organism-based
[2] = tested on: B16-F10; experiment: Antiproliferative activity against mouse B16-F10 cells after 72 hrs by MTT assay; format: functional, cell-based; conditions: B16-F10, 72 h
[3] = tested on: NCI-H460; experiment: Antiproliferative activity against human NCI-H460 cells after 72 hrs by MTT assay; format: functional, cell-based; conditions: NCI-H460, 72 h
[4] = tested on: HeLa 229; experiment: Antiproliferative activity against human HeLa 229 cells after 72 hrs by MTT assay; format: functional, cell-based; conditions: HeLa 229, 72 h
[5] = biological target: Fibroblast growth factor receptor 1 (Homo sapiens, UniProt P11362); experiment: Inhibition of FGFR1 (unknown origin) using ULight-JAK-1 (Tyr1023) peptide as substrate incubated for 90 mins and measured after 1 hr by LANCE Ultra TR-FRET assay
[6] = biological target: Fibroblast growth factor receptor 3 (Homo sapiens, UniProt P22607); experiment: Inhibition of FGFR3 (unknown origin)
[7] = tested on: L02; experiment: Antiproliferative activity against human HL7702 cells after 72 hrs by MTT assay; format: functional, cell-based; conditions: L02, 72 h
[8] = tested on: HCT-116; experiment: Antiproliferative activity against human HCT-116 cells after 72 hrs by MTT assay; format: functional, cell-based; conditions: HCT-116, 72 h
[9] = tested on: HepG2; experiment: Induction of apoptosis in human HepG2 cells assessed as fold increase in BAX/BCL-2 protein level; format: functional
[10] = tested on: MCF7; experiment: Antiproliferative activity against human MCF7 cells; format: functional, cell-based
[11] = tested on: HepG2; experiment: Cell cycle arrest in human HepG2 cells assessed as fold increase in accumulation at G2/M phase; format: functional
[12] = biological target: Vascular endothelial growth factor receptor 2 (Homo sapiens, UniProt P35968)
[13] = tested on: HepG2; experiment: Induction of apoptosis in human HepG2 cells assessed as fold increase in caspase-3 protein level; format: functional
[14] = tested on: HepG2; experiment: Antiproliferative activity against human HepG2 cells; format: functional, cell-based
[15] = tested on: HepG2; experiment: Induction of apoptosis in human HepG2 cells assessed as fold increase in caspase-9 protein level; format: functional
[16] = tested on: Candida albicans; experiment: Antifungal activity against Candida albicans assessed as diameter zone of inhibition; format: functional
[17] = Antiproliferative activity against human U-87 MG cells; format: functional, cell-based, U-87MG ATCC
[18] = Inhibition of DC-SIGN (unknown origin)
[19] = tested on: CT26; experiment: Antitumor activity against mouse CT26 cells xenografted in C57BL/6 mouse assessed as tumor suppression rate at 20 mg/kg, ip administered for 14 days; format: functional; conditions: time 14 day
[20] = tested on: HCT-116; experiment: Antiproliferative activity against human HCT-116 cells after 48 hrs by MTT assay; format: functional, cell-based; conditions: HCT-116, 48 h
[21] = biological target: Bromodomain-containing protein 4 (Homo sapiens, UniProt O60885); experiment: Inhibition of BRD4 (unknown origin) using histone-H4 as substrate incubated for 15 mins and measured after 1 hr by AlphaScreen assay
[22] = tested on: Candida; experiment: Antifungal activity against Candida species isolate 2; format: functional
[23] = tested on: Mycobacterium tuberculosis; experiment: Antimycobacterial activity against Mycobacterium tuberculosis at […]; format: functional; conditions: dose 12.5 µg/ml
[24] = tested on: Candida; experiment: Antifungal activity against Candida species isolate 3; format: functional
[25] = tested on: Pichia kudriavzevii; experiment: Antifungal activity against Candida krusei; format: functional
[26] = tested on: Candida albicans; experiment: Antifungal activity against Candida albicans; format: functional
[27] = tested on: Escherichia coli; experiment: Antibacterial activity against Escherichia coli; format: functional
[28] = tested on: Candida parapsilosis; experiment: Antifungal activity against Candida parapsilosis; format: functional; conditions: Lodderomyces parapsilosis
[29] = tested on: Candida tropicalis; experiment: Antifungal activity against Candida tropicalis; format: functional
[30] = tested on: Candida; experiment: Antifungal activity against Candida species isolate 1; format: functional
[31] = tested on: Nakaseomyces glabratus; experiment: Antifungal activity against Candida glabrata; format: functional
[32] = Inhibition of IgE-mediated passive cutaneous anaphylaxis in rat when administered orally; format: functional; conditions: route po
[33] = Inhibition of antigen-induced release of histamine (AIR) from rat peritoneal mast cells (RMC); format: functional, cell-based; conditions: Mast cell, read-out: I50
[34] = Inhibition of IgE-mediated passive cutaneous anaphylaxis in rat at 25 mg/kg, po; format: functional
[35] = biological target: Amine oxidase [flavin-containing] B (Homo sapiens, UniProt P27338); experiment: Inhibition of MAO-B (unknown origin)
[36] = biological target: Amine oxidase [flavin-containing] A (Homo sapiens, UniProt P21397); experiment: Inhibition of MAO-A (unknown origin)
[37] = tested on: Rattus norvegicus; experiment: Antiobesity activity in fasted Sprague-Dawley rat assessed as inhibition of food intake for more than 2 hrs when administered intraperitoneally; format: functional; conditions: route ip
[38] = tested on: Rattus norvegicus; experiment: Antiobesity activity in fasted Sprague-Dawley rat assessed as inhibition of food intake for more than 2 hrs when administered orally; format: functional; conditions: route po
[39] = biological target: 72 kDa type IV collagenase (Homo sapiens, UniProt P08253); experiment: Inhibition of MMP-2 (unknown origin) using succinylated gelatin as substrate incubated for 30 mins and measured by gelatin zymography method
[40] = Binding affinity to benzodiazepine receptor (unknown origin); set-up: species or system Homo sapiens
[41] = biological target: Glutamate receptor 2 (Homo sapiens, UniProt P42262); experiment: Binding affinity to GluA2 receptor (unknown origin)
[42] = biological target: T1, Glutamate receptor ionotropic AMPA (Homo sapiens, UniProt P42261+P42262+P42263+P48058); experiment: Displacement of [3H]AMPA from AMPA receptor (unknown origin); format: protein-complex assay
[43] = biological target: T1, Glutamate receptor ionotropic AMPA; experiment: Displacement of [3H]kainic acid from AMPA receptor (unknown origin); format: protein-complex assay
[44] = biological target: T1, Glutamate receptor ionotropic AMPA; experiment: Displacement of […] from AMPA receptor (unknown origin); format: protein-complex assay
[45] = biological target: T2, Glutamate receptor ionotropic, kainate 1 (Homo sapiens, UniProt P39086); experiment: Binding affinity to GluK1 receptor (unknown origin)
[46] = biological target: Glutamate receptor ionotropic, kainate 2 (Homo sapiens, UniProt Q13002); experiment: Binding affinity to GluK2 receptor (unknown origin)
[47] = biological target: T2, Glutamate receptor ionotropic, kainate 1; experiment: Binding affinity to GluK1 ligand binding domain (unknown origin)
[48] = biological target: Platelet-derived growth factor receptor beta (Homo sapiens, UniProt P09619); experiment: Inhibition of PDGFR-beta (unknown origin)

T2 sequence (P39086 whole entry): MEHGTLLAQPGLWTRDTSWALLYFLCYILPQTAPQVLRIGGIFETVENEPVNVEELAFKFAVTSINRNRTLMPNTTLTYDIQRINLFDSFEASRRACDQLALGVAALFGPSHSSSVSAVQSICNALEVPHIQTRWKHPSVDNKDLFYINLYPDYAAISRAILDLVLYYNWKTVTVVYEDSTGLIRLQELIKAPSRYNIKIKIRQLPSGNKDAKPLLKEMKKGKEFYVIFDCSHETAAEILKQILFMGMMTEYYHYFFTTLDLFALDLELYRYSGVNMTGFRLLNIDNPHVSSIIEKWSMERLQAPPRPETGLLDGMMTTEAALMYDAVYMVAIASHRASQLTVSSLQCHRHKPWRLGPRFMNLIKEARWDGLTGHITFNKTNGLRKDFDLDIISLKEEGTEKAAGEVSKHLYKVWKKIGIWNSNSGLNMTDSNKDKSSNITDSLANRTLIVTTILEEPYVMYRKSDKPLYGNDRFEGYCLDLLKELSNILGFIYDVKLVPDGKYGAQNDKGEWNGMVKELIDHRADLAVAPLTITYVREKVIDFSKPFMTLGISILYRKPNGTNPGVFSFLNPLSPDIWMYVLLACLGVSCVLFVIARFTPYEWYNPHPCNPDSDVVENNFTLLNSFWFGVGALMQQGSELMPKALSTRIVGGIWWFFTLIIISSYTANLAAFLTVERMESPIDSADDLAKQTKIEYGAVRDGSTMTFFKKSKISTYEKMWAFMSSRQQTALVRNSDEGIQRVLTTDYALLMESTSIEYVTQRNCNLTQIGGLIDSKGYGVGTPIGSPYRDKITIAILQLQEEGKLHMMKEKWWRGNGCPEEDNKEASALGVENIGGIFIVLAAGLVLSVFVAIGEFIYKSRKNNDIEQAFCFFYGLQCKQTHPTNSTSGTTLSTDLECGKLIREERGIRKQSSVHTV
Sequence of Fibroblast growth factor receptor 1 (P11362 whole entry): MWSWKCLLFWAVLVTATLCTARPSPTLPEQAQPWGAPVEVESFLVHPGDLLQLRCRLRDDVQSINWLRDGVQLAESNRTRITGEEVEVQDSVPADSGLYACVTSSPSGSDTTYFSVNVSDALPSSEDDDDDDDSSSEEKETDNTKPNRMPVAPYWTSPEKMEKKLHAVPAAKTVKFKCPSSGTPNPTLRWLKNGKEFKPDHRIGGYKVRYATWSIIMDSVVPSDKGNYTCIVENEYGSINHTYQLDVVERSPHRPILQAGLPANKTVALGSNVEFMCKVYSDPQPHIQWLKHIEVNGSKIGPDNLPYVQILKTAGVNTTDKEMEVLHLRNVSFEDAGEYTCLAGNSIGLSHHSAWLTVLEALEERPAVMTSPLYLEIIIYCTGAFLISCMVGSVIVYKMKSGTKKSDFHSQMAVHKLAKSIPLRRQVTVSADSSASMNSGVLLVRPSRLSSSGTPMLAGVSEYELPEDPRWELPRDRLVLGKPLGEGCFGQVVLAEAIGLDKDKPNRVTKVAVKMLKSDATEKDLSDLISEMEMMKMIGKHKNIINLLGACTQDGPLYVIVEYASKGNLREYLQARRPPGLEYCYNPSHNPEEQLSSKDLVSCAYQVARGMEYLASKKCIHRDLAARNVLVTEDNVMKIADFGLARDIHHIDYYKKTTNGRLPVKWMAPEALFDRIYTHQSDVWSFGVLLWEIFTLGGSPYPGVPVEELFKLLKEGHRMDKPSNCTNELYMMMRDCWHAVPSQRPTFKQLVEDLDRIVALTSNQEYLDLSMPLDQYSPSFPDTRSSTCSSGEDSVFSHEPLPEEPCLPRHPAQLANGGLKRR
Sequence of Vascular endothelial growth factor receptor 2 (P35968 whole entry): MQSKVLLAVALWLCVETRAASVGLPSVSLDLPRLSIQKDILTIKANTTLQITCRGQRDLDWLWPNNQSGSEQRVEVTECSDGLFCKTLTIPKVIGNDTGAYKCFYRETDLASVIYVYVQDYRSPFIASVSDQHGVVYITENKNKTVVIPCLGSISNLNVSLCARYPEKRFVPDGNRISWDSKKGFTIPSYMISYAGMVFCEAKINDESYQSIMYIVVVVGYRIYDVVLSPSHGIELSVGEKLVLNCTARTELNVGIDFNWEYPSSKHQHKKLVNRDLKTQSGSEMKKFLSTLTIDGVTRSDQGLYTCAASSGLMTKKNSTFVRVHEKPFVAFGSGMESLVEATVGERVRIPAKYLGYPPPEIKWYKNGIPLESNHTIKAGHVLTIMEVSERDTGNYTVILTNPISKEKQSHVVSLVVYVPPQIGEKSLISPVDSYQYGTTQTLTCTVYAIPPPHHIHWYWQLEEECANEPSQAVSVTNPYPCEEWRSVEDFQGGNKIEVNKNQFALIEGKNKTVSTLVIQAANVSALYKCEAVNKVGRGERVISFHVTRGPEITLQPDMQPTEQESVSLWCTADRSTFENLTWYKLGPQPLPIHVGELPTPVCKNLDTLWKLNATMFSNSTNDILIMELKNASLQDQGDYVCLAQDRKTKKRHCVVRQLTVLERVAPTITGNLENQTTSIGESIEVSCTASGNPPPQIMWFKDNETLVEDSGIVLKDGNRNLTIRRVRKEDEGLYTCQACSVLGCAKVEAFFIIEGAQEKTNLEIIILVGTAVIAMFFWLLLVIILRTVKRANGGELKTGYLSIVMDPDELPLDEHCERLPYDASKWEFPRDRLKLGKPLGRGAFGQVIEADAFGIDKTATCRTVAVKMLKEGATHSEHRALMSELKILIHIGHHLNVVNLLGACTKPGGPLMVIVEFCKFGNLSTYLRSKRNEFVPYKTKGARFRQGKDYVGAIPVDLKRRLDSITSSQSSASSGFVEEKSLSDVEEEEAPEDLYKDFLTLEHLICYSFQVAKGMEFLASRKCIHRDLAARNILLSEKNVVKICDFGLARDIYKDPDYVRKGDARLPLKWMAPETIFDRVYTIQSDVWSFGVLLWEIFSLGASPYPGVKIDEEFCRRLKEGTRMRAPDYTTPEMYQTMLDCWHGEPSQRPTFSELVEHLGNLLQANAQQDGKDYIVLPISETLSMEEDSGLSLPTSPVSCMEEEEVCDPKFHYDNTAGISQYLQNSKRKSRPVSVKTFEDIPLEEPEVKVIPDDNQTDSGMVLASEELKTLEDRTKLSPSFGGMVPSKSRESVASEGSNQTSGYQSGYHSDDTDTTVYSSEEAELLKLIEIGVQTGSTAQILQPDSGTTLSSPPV
Sequence of Amine oxidase [flavin-containing] B (P27338 whole entry): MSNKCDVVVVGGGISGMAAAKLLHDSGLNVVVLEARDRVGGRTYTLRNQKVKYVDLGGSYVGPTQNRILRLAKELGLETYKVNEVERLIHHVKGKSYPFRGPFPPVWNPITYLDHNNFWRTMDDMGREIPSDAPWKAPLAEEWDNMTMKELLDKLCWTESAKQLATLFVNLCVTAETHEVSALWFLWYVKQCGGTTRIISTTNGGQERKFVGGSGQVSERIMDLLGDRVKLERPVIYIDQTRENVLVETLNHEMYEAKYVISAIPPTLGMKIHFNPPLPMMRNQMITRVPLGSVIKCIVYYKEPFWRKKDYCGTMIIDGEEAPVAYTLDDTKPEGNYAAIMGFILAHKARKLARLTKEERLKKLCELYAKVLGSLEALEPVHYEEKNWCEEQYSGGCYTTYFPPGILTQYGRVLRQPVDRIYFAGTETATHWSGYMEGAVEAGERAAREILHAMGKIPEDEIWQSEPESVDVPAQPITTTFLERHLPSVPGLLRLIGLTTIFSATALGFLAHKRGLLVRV
Sequence of Glutamate receptor ionotropic, kainate 2 (Q13002 whole entry, the tested form may be a part): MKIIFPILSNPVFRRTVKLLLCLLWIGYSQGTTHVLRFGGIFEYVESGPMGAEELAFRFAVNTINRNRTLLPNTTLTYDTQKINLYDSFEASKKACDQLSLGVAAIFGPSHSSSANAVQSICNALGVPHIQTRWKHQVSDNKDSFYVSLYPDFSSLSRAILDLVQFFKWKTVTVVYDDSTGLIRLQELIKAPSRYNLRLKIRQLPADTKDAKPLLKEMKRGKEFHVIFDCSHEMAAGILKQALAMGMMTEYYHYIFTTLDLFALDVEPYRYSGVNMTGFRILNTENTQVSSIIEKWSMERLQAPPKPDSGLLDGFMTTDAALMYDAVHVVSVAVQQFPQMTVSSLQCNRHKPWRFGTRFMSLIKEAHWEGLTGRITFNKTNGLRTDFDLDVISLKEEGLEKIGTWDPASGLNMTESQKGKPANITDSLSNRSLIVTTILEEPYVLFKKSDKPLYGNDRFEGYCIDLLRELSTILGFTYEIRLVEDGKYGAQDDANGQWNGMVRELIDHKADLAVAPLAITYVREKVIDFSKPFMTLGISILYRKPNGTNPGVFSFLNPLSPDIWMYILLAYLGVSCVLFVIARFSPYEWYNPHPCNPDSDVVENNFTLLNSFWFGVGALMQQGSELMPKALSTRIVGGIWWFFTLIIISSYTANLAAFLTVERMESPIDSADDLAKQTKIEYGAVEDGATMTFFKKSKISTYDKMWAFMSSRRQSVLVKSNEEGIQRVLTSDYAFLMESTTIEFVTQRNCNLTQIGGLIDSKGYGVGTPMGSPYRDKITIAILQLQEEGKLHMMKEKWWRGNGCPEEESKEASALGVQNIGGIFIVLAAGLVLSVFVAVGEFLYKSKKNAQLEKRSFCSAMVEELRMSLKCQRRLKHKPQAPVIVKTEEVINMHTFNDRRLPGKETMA
Sequence of Amine oxidase [flavin-containing] A (P21397 whole entry): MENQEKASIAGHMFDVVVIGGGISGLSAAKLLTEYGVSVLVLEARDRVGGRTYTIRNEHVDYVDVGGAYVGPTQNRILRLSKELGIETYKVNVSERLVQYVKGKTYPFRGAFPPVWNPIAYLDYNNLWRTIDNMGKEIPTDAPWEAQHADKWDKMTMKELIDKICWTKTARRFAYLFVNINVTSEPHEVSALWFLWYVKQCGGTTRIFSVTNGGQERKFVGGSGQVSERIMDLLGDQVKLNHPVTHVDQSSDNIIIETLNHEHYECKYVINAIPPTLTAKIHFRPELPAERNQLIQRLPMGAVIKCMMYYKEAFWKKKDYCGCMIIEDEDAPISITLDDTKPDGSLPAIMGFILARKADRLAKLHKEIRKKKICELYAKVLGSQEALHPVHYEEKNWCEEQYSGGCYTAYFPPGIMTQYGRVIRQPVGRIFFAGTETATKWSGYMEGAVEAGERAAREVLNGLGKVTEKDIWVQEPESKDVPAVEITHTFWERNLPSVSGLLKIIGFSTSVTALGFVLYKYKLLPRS

With `O=C1CN(S(=O)(=O)c2c(Cl)cccc2Cl)c2cc(Cl)ccc2N1` the EC50 [1] was 1.09 µM.
For `O=c1c(/C=C/c2ccccc2Cl)nc2ccccc2n1Cc1ccccc1`, the IC50 [2] was 3.39 µM, the IC50 [3] was 18.1 µM and the IC50 [4] was over 50 µM. For the same compound, the IC50 [5] was 25.7 µM, the IC50 [6] was 94.5 µM and the IC50 [7] was over 100 µM. The IC50 [8] was over 50 µM.
With `O=C(Cn1c(=O)c2nncn2c2ccccc21)Nc1ccc(C(=O)Nc2ccc(Cl)cc2)cc1` the “fold change (FC)” value [9] was 3.81, the IC50 [10] was 7.2 µM and the “fold change (FC)” value [11] was 2.14. For the same compound, the IC50 [12] was 0.0034 µM, the “fold change (FC)” value [13] was 1.96 and the IC50 [14] was 4.1 µM. The “fold change (FC)” value [15] was 1.82.
With `CC(C)=NNc1nc2ccccc2[nH]c1=O` the “diameter of the inhibition zone (DIZ)” value [16] was 31 mm.
In the case of `COc1cc2c(Oc3ccc(NC(=O)c4nc5ccccc5n(C5CCCCC5)c4=O)cc3F)ccnc2cc1OCCCN1CCOCC1`, the IC50 [17] is reported as 0.81 µM.
In the case of `NS(=O)(=O)c1ccc(CCCC2Nc3ccc(C(=O)N4CCN(c5ccncc5)CC4)cc3NC2=O)cc1` (centres undefined), the IC50 [18] is reported as 0.31 µM.
`Cc1noc(C)c1-c1ccc2c(c1)C(c1ccccc1)N(Cc1cn(CCOCCOCCOCCn3cc(CC4C(=O)N(C)c5ccc(-c6c(C)noc6C)cc5N4c4ccccc4)nn3)nn1)C(=O)N2C` (centres undefined) showed an Activity [19] of 56.1%, an IC50 [20] of 0.162 µM and an IC50 [21] of 0.0077 µM.
For `O=c1[nH]c2cc([N+](=O)[O-])ccc2nc1CBr`, the MIC [22] was 31.2 µg/mL (≈ 110 µM), the Activity [23] was 15% and the MIC [24] was 15.6 µg/mL (≈ 54.9 µM). It also gave an MIC [25] of 62.5 µg/mL (≈ 220 µM), an MIC [26] of 8 µg/mL (≈ 28.2 µM) and an MIC [27] of 125 µg/mL (≈ 440 µM). The MIC [28] was 15.6 µg/mL (≈ 54.9 µM), the MIC [29] was 31.2 µg/mL (≈ 110 µM) and the MIC [30] was 15.6 µg/mL (≈ 54.9 µM). For the same compound, the MIC [31] was 15.6 µg/mL (≈ 54.9 µM).
For `CCCn1c(=O)c2nnc(O)n2c2ccc(Cl)cc21`, the ED50 [32] was 3 mg/kg, the IC50 [33] was 0.4 µM and the inhibition in vivo at 25 mg/kg [34] was 53%.
Work on `C/C(=N\NC(=O)Cn1c(=O)c(Cc2ccccc2)nc2ccccc21)c1ccc(O)cc1` yielded an IC50 [35] of 980 µM and an IC50 [36] of 0.0016 µM.
`O=C1Nc2cc(Cl)c(Cl)cc2N2CCNC[C@H]12` gave an ED50 [37] of 2 mg/kg and an ED50 [38] of 10 mg/kg.
`Cc1ccc(NC(=O)C(Cc2ccccc2)NC(=O)Cn2c(=O)c(C)nc3ccccc32)cc1` (centres undefined) showed an IC50 [39] of 10.5 µM.
`Oc1nc2ccc(Cl)cc2n2nc(-c3ccccc3F)nc12` gave a Ki [40] of 0.0029 µM.
In the case of `N[C@@H](CCc1ccc2[nH]c(=O)c(=O)[nH]c2c1)C(=O)O`, the Ki [41] is reported as 21.3 µM, the IC50 [42] is reported as 26 µM and the IC50 [43] is reported as 126 µM. For the same compound, the Ki [44] was 78 µM, the Ki [45] was 16.1 µM and the Ki [46] was 9.52 µM. For the same compound, the Ki [47] was 37.1 µM.
Work on `Cn1c(=O)c(/C=C/c2ccccn2)nc2ccccc21` yielded an IC50 [2] of 6.64 µM, an IC50 [48] of over 89.5 µM and an IC50 [3] of 5.78 µM. For the same compound, the IC50 [4] was 14.6 µM, the IC50 [5] was 26.7 µM and the IC50 [7] was 53.7 µM. For the same compound, the IC50 [8] was 7.63 µM.
